# Measured values as given in US20250325529A1, “INHIBITORS OF FATTY ACID BINDING PROTEINS (FABPs), METHODS OF USE AND METHODS OF MAKING” (Celloram, inc., priority 2024, published 2025).
# pIC50: −log10 of the molar value. Entries after “also recorded” stand apart in the source; their conditions may differ. Read-outs that look alike come from different tables or passages of the source.
# Key:
# [1] = test system: MB-231 cells; assay: Proliferation assay (Incucyte confluency), MB-231; format: cell-based; details: Homo sapiens, 96 h, 4 days, read-out: IC50, inhibition of proliferation
# Description: (§1) COS-7, MDA-MB-231, and HepG2, were cultured in Dulbecco's modified Eagle's medium (DMEM) supplemented with 10% fetal bovine serum (Invitrogen Life Sciences, Carlsbad, CA). BT-549, OVCAR5 and OVCAR8 cells were cultured in L-Glutamine containing RPMI medium supplemented with 10% fetal calf serum (Invitrogen Life Sciences, Carlsbad, CA). The primary Human Mammary Epithelial Cells (HMEC) were cultured in mammary epithelial cell complete medium (basal medium plus rH-Insulin (5 μg/mL); L-Glutamine (6 mM); Epinephrine (1 μM); Apo-Transferrin (5 μg/mL); rH-TGF-α (0.5 ng/mL); ExtractP (0.4%); Hydrocortisone Hemisuccinate (100 ng/mL)).
# (§2) 2000 cells were plated in each well of 96-well plate. The next day cells were treated with compounds and incubated in Incucyte for 4 days. Images taken every 4 hours for the duration of the time were analyzed to calculate percentage of confluency in response to the treatments. Growth inhibition was calculated as 1—(percentage of viable cells out of untreated cells).
# [2] = test system: BT-549 cells; assay: Proliferation assay (Incucyte confluency), BT-549; format: cell-based; details: Homo sapiens, 96 h, 4 days, read-out: IC50, inhibition of proliferation
# Description: as §1, §2
# [3] = test system: Salmonella typhimurium tester strain TA1537; assay: Ames test (Bacterial Reverse Mutation Test), TA1537; format: cell-based
# Description: PD152 (compound 2) was tested for genotoxic and cytotoxic side effects by Ames test. The Ames test is a Bacterial Reverse Mutation Test of mutagenicity that utilizes Salmonella typhimurium tester strains TA98, TA100, TA1535, TA1537 and Escherichia coli tester strain WP2 uvrA (pKM101), both in the presence and absence of S9.
# The compound PD152 was tested at 10 concentrations (0.032-1000 μg/plate) in the presence of, or absence of, the hepatic enzyme S9.
# The aniline FABP4/5 inhibitor compound, 2-((2-((2,4-dichloro-5-isopropoxyphenyl)amino)-2-oxoethyl)thio)-2-methylpropanoic acid (compound “B104” as disclosed in WO2023043803A1) also was tested for genotoxic and cytotoxic side effects by Ames test. […]
# [4] = target: PPARγ (Homo sapiens (Human), UniProt P37231); assay: Transcriptional activation assay in COS7 cells, PPARγ; format: cell-based; details: PPRE luciferase reporter, PD151 and PD152 at 10 μM
# Sequence of PPARγ (P37231 whole entry, species assumed): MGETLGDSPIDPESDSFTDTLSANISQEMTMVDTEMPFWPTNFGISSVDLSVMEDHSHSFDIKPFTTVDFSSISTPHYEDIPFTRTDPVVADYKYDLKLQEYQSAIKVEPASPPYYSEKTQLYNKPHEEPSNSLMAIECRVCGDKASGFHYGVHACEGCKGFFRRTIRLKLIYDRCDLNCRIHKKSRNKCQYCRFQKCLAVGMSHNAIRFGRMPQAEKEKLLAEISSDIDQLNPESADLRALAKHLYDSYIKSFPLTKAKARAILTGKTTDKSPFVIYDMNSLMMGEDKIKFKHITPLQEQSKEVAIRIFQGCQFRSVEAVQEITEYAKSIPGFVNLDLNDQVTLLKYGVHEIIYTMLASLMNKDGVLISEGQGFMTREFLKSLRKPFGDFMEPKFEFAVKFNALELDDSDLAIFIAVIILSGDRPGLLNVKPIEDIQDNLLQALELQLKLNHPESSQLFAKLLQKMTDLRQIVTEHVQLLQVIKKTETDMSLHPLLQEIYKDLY
# Description: COS-7 were cultured in 6-well plates and co-transfected with either a luciferase reporter driven by 3 copies of a PPRE and expression vector for either PPARδ, PPARα or PPARγ together with a vector harboring cDNA for β-galactosidase, serving as a transfection control. To test whether FABP4 or FABP5 mediate activation of their cognate receptors PPARγ and PPARδ, respectively, cells were also co-transfected with a plasmid harboring sequence of either FABP4 or FABP5. 18 h post-transfection, cells were placed in a serum-free medium and treated with agonist/compound. 18 h. later, cells were lysed, luciferase activity was assayed (Promega, WI, USA) and corrected for transfection efficiency by the activity of β-galactosidase.
# Transcriptional activation assays were carried out utilizing COS7 cells as described above.
# [5] = Tissue distribution in C57BL/6 male mice; format: in vivo, C57BL/6 mice; details: oral 10 mg/kg; for PK parameters / concentration at 0.5 h / concentration at 2 h / concentration at 4 h / concentration at 8 h / Kp: mice; for concentration at 0.5 h / concentration at 2 h / concentration at 4 h / concentration at 8 h / Kp: male, C57BL/6, mouse; for Kp: read-out: Tissue/Plasma ratio (Kp)
# [6] = Single dose IV and PO PK study in C57BL/6 mice; format: in vivo; details: male C57BL/6 mice
# Description: C57BL/6 male mice or Han Wistar rats were used, n=3 for each administration route and compound. Single dose of each compound was administered orally (PO, 10 mg/Kg) or by intravenous administration (IV, 1 mg/Kg). Following intravenous and oral administration, blood samples (ca 0.2 mL) were collected and compound amount was measured by HLPC. For IV group, blood samples were collected at 0.083, 0.25, 0.5, 1, 2, 4, 6, 8, and 24 hours post-dose. For PO group, blood samples were collected at 0.25, 0.5, 1, 2, 4, 6, 8, and 24 hours post-dose.
# [7] = TA1537, absence of S9, 0.0312 μg/plate
# [8] = TA1537, absence of S9, 0.1 μg/plate
# [9] = TA1537, absence of S9, 0.316 μg/plate
# [10] = TA1537, absence of S9, 1 μg/plate
# [11] = TA1537, absence of S9, 3.16 μg/plate
# [12] = TA1537, absence of S9, 10 μg/plate
# [13] = TA1537, absence of S9, 31.6 μg/plate
# [14] = TA1537, absence of S9, 100 μg/plate
# [15] = TA1537, absence of S9, 316 μg/plate
# [16] = TA1537, absence of S9, 1000 μg/plate
# [17] = TA1537, presence of S9, 0.0312 μg/plate
# [18] = TA1537, presence of S9, 0.1 μg/plate
# [19] = TA1537, presence of S9, 0.316 μg/plate
# [20] = TA1537, presence of S9, 1 μg/plate
# [21] = TA1537, presence of S9, 3.16 μg/plate
# [22] = TA1537, presence of S9, 10 μg/plate
# [23] = TA1537, presence of S9, 31.6 μg/plate
# [24] = TA1537, presence of S9, 100 μg/plate
# [25] = TA1537, presence of S9, 316 μg/plate
# [26] = TA1537, presence of S9, 1000 μg/plate
# [27] = brain, read-out: Brain concentration
# [28] = liver, read-out: Liver concentration
# [29] = pancreas, read-out: Pancreas concentration
# [30] = plasma, read-out: Plasma concentration
# [31] = skeletal muscle, read-out: Skeletal muscle concentration
# [32] = white adipose tissue, read-out: Adipose tissue concentration
# [33] = mouse, plasma, intravenous 1 mg/kg
smiles,measurement,setting,value
"CC(C)Oc1nc(NC(=O)CSCC(=O)O)c(Cl)cc1Cl [PD152, 2-((2-((3,5-dichloro-6-isopropoxypyridin-2-yl)amino)-2-oxoethyl)thio)acetic acid]",pIC50,[1],6.22
same,pIC50,[2],5.98
same,Fold increase,[3]; [7],1
same,Mean number of revertants,[3]; [7],3
same,Fold increase,[3]; [8],1
same,Mean number of revertants,[3]; [8],3
same,Fold increase,[3]; [9],1
same,Mean number of revertants,[3]; [9],4
same,Fold increase,[3]; [10],1
same,Mean number of revertants,[3]; [10],3
same,Fold increase,[3]; [11],1
same,Mean number of revertants,[3]; [11],3
same,Fold increase,[3]; [12],1
same,Mean number of revertants,[3]; [12],3
same,Fold increase,[3]; [13],1
same,Mean number of revertants,[3]; [13],4
same,Fold increase,[3]; [14],1
same,Mean number of revertants,[3]; [14],3
same,Fold increase,[3]; [15],1
same,Mean number of revertants,[3]; [15],3
same,Fold increase,[3]; [16],1
same,Mean number of revertants,[3]; [16],3
same,Fold increase,[3]; [17],1
same,Mean number of revertants,[3]; [17],4
same,Fold increase,[3]; [18],1
same,Mean number of revertants,[3]; [18],3
same,Fold increase,[3]; [19],1
same,Mean number of revertants,[3]; [19],3
same,Fold increase,[3]; [20],1
same,Mean number of revertants,[3]; [20],3
same,Fold increase,[3]; [21],1
same,Mean number of revertants,[3]; [21],3
same,Fold increase,[3]; [22],1
same,Mean number of revertants,[3]; [22],4
same,Fold increase,[3]; [23],1
same,Mean number of revertants,[3]; [23],3
same,Fold increase,[3]; [24],1
same,Mean number of revertants,[3]; [24],3
same,Fold increase,[3]; [25],1
same,Mean number of revertants,[3]; [25],4
same,Fold increase,[3]; [26],1
same,Mean number of revertants,[3]; [26],4
same,Activation of transcription by PPARγ,[4],None of these tested compounds activated; also recorded: none of the tested compounds PD151 and PD152 activated transcription
same,PK parameters,[5]; Adipose tissue,6655.32 ng·h/g
same,Detection in the brain (blood-brain barrier crossing),[5]; C57BL/6 male mice,Only traces
same,Mean peak adipose tissue concentration,[5]; C57BL/6 male mice,2109.6 ng/g
same,Mean peak liver concentration,[5]; C57BL/6 male mice,3893.5 ng/g
same,Mean peak pancreas concentration,[5]; C57BL/6 male mice,215.09 ng/g
same,Mean peak plasma concentration,[5]; C57BL/6 male mice,3929.88 ng/mL
same,Mean peak skeletal muscle concentration,[5]; C57BL/6 male mice,139.45 ng/g
same,PK parameters,[5]; Liver,6704.59 ng·h/g
same,PK parameters,[5]; Pancreas,352.54 ng·h/g
same,PK parameters,[5]; Skeletal Muscle,270.09 ng·h/g
same,concentration at 0.5 h,[5]; [27],14.8 ng/g
same,concentration at 2 h,[5]; [27],0 ng/g
same,concentration at 4 h,[5]; [27],0 ng/g
same,concentration at 8 h,[5]; [27],0 ng/g
same,concentration at 0.5 h,[5]; [28],3890 ng/g
same,concentration at 2 h,[5]; [28],419 ng/g
same,concentration at 4 h,[5]; [28],534 ng/g
same,concentration at 8 h,[5]; [28],238 ng/g
same,concentration at 0.5 h,[5]; [29],215 ng/g
same,concentration at 2 h,[5]; [29],28.2 ng/g
same,concentration at 4 h,[5]; [29],20 ng/g
same,concentration at 8 h,[5]; [29],14 ng/g
same,concentration at 0.5 h,[5]; [30],3930 ng/mL
same,concentration at 2 h,[5]; [30],236 ng/mL
same,concentration at 4 h,[5]; [30],210 ng/mL
same,concentration at 8 h,[5]; [30],149 ng/mL
same,concentration at 0.5 h,[5]; [31],139 ng/g
same,concentration at 2 h,[5]; [31],26.5 ng/g
same,concentration at 4 h,[5]; [31],14 ng/g
same,concentration at 8 h,[5]; [31],21.1 ng/g
same,concentration at 0.5 h,[5]; [32],2110 ng/g
same,concentration at 2 h,[5]; [32],1020 ng/g
same,concentration at 4 h,[5]; [32],520 ng/g
same,concentration at 8 h,[5]; [32],596 ng/g
same,Kp,[5]; Adipose tissue,1.3
same,Kp,[5]; Liver,1.3
same,Kp,[5]; Pancreas,0.07
same,Kp,[5]; Skeletal Muscle,0.05
same,Thalf,[6]; oral 10 mg/kg,2.6 h
same,clearance,[6]; [33],16.1 mL/min/kg
same,half-life,[6]; [33],3 to 4 h
same,bioavailability,"[6]; mouse, plasma, single oral dose 10 mg/kg",75%
